Where two headings read alike, the source gives them in different places.
Experiments:
[1] = tested on: IL-2 secretion by human effector memory T cells (TEM); assay: Effector memory T cells IL-2 release assay (CD3/CD28 stimulation, HTRF IL-2 detection); assay type: cell-based; settings: Homo sapiens, T-cell, 24 h
How it was run: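 Human effector memory T cells from healthy-donor buffy coats were exposed in triplicate to ten semi-log doses of compound in 0.1% DMSO. The cells were stimulated and incubated 24 h at 37 °C. Secreted IL-2 in the supernatant was measured by HTRF.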

[2] = target: T1, Recombinant human PKC-theta (His-tagged 362-706) (Homo sapiens, UniProt Q04759); assay: PKC-theta inhibition assay (HTRF KinEASE kit); assay type: biochemical; settings: ATP 6.5 μM, STK substrate 525 nM
T1 construct: Recombinant human PKC-theta (His-tagged 362-706); His
T1 sequence (Q04759 362-706): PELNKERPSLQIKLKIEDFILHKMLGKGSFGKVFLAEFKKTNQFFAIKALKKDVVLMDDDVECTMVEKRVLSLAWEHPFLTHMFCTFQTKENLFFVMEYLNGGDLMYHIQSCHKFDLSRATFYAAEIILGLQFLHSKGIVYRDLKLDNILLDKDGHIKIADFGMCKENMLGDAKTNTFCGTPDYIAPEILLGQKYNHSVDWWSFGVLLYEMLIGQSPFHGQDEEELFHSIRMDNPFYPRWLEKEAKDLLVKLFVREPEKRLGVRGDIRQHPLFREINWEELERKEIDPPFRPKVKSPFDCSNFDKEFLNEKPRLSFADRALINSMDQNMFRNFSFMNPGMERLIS
How it was run: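 IC50 values were from 4-parameter logistic fits of percent inhibition, based on acceptor/donor HTRF ratios over 10 semi-log compound doses. Kinase reactions, started with substrate plus ATP, ran 30 min at 25 °C in buffer supplemented with 10 mM MgCl2, 1 mM DTT and 0.1% Tween 20; detection lasted 2 h.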

[3] = target: T2, Recombinant human PKC-delta (His-tagged 345-676) (Homo sapiens, UniProt Q05655); assay: PKC-delta inhibition assay (HTRF KinEASE kit); assay type: biochemical; settings: ratio, PKC-theta vs PKC-delta HTRF; for PKC-theta/PKC-delta selectivity (binned): binned A to G
T2 construct: PKC-delta (His-tagged 345-676); His
T2 sequence (Q05655 345-676): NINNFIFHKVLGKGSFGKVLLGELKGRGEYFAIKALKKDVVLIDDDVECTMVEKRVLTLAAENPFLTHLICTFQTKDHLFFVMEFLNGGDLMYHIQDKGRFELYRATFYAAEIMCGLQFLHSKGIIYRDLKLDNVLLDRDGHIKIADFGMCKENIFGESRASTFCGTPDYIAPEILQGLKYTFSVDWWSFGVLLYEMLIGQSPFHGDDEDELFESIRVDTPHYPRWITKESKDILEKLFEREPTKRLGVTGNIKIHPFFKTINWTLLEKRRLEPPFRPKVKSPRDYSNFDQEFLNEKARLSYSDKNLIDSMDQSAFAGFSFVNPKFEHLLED
Procedure: PKC-theta and PKC-delta biochemical activities were measured using the PKC-theta HTRF KinEASEkit kit, according to manufacturer's instructions (Cisbio, catalogue number 61ST1PEJ). Briefly, the kinase buffer component of the kit was supplemented with 10 mM MgCl2, 1 mM DTT and 0.1% Tween 20. […] The streptavidin_XL665 and STK antibody-cryptate detection reagents were mixed according to the manufacturer's instructions. Test compounds were diluted in DMSO in a series of 10 semi-log step doses; 10 nL of each compound dose were dispensed in 384 well plates. […] The reaction was started by addition of the substrate and ATP and incubated at 25° C. for 30 minutes or 20 minutes for the PKC-theta and PKC-delta assays, respectively. The detection reagents were added, and the plate was incubated in the dark for 2 hours. […] The ratio of acceptor and donor emission signals was calculated for each well.

[4] = binned A to G, read-out: PKC-theta IL2 pIC50 (binned) (converted)
[5] = read-out: PKC-theta IL2 pIC50 (converted)
[6] = binned A to H, read-out: PKC-theta HTRF pIC50 (binned) (converted)
[7] = read-out: PKC-theta HTRF pIC50 (converted)

| SMILES | IC50 [1, 4] [nM] | IC50 [1, 5] [nM] | IC50 [2, 6] [nM] | IC50 [2, 7] [nM] | PKC-theta/PKC-delta selectivity [3] | PKC-theta/PKC-delta selectivity (binned) [3] |
| --- | --- | --- | --- | --- | --- | --- |
| O=c1[nH]c2nccc(-c3cc(N4CCNCC4)ccc3F)c2[nH]1 [Example 15] | > 1000 | 10000 | 316 to 1000 | 501 | 3 | F (a ratio of between 1 and 5) |
| CCC1(C)C(=O)Nc2nccc(-c3cc(C(F)(F)F)cc(N4CCNC[C@H]4C)n3)c21 (stereo partly drawn) [Example 144] | 10 to 31.6 | 25.1 | 1 to 3.16 | 1.58 | 23 | C (a ratio of between 20 and 30) |
| CC1(C)C(=O)Nc2nccc(-c3cccc(N4CCNCC4)c3)c21 [Example 23] | > 1000 | 1580 | 100 to 316 | 100 | 2 | F (a ratio of between 1 and 5) |
| O=C1Nc2nccc(-c3cc(F)cc(N4CCNCC4)c3)c2C12CCC2 [Example 35] | 316 to 1000 | 398 | 31.6 to 100 | 39.8 | 3 | F (a ratio of between 1 and 5) |
| C[C@@H]1CNC[C@@H](C)N1c1cc(C(F)(F)F)cc(-c2ccnc3c2C(C)(C)C(=O)N3)n1 [Example 180] | 316 to 1000 | 631 | 1 to 3.16 | 2 | 28 | C (a ratio of between 20 and 30) |
| CC1(C)C(=O)Nc2nccc(-c3cc(C(F)(F)F)cc(N4CCNC5(CC5)C4)n3)c21 [Example 84] | 316 to 1000 | 316 | 3.16 to 10 | 7.94 | 14 | D (a ratio of between 10 and 20) |
| CC1(C)C(=O)Nc2nccc(-c3cccc(OC4CCNCC4)c3)c21 [Example 47] | > 1000 | 2510 | 100 to 316 | 316 | 2 | F (a ratio of between 1 and 5) |
| CC[C@]1(O)C(=O)Nc2nccc(-c3cc(C(F)(F)F)cc(N4CCNC[C@H]4C)n3)c21 (single isomer, unassigned) [Example 167] | > 1000 | 2510 | 100 to 316 | 316 | 33 | B (a ratio of between 30 and 50) |
| C[C@@H]1CNCCN1c1cc(C(F)(F)F)cc(-c2ccnc3c2C(C)(C)C(=O)N3)n1 [Example 102] | 10 to 31.6 | 20 | 1 to 3.16 | 1.58 | 14 | D (a ratio of between 10 and 20) |
| CC1(C)C(=O)Nc2nccc(-c3cc(OC(F)F)cc(N4CCNCC4)n3)c21 [Example 86] | 316 to 1000 | 501 | 31.6 to 100 | 31.6 | 10 | E (a ratio of between 5 and 10) |
| CC1(C)C(=O)Nc2nccc(-c3cc(C(F)(F)F)cc(N4CCN[C@H]5COC[C@H]54)n3)c21 [Example 192] | 100 to 316 | 158 | 3.16 to 10 | 3.98 | 31 | B (a ratio of between 30 and 50) |
| CC1(C)C(=O)Nc2nccc(-c3cc(C(F)(F)F)cc(N4CCNCC4C(F)F)n3)c21 (stereo not drawn) [Example 160] | 31.6 to 100 | 100 | 1 to 3.16 | 3.16 | 9 | E (a ratio of between 5 and 10) |
| C[C@@]1(O)C(=O)Nc2nccc(-c3cc(C(F)(F)F)cc(N4CCNC(C(F)F)C4)n3)c21 (single isomer, unassigned) [Example 123] | > 1000 | 1580 | 10 to 31.6 | 20 | 25 | C (a ratio of between 20 and 30) |
| COC1(C)C(=O)Nc2nccc(-c3cc(C(F)(F)F)cc(N4CCN[C@@H](C)C4)n3)c21 (stereo partly drawn) [Example 112] | 100 to 316 | 251 | 10 to 31.6 | 15.8 | 20 | C (a ratio of between 20 and 30) |
| C[C@H]1CNCCCN1c1cc(C(F)(F)F)cc(-c2ccnc3c2C(C)(C)C(=O)N3)n1 [Example 189] | 100 to 316 | 251 | 3.16 to 10 | 5.01 | 16 | D (a ratio of between 10 and 20) |
| CC[C@]1(O)C(=O)Nc2nccc(-c3cc(Cl)cc(N4CCN[C@@H](C)C4)n3)c21 (single isomer, unassigned) [Example 163] | 10 to 31.6 | 31.6 | 3.16 to 10 | 3.98 | 10 | D (a ratio of between 10 and 20) |
| O=C1Nc2nccc(-c3cc(C(F)(F)F)cc(N4CCNCC4)n3)c2C12CCCC2 [Example 103] | 100 to 316 | 100 | 10 to 31.6 | 15.8 | 6 | E (a ratio of between 5 and 10) |
| CC1(C)C(=O)Nc2nccc(-c3cc(C(F)(F)F)cc(C4(CO)CCNC4)n3)c21 (stereo not drawn) [Example 70] | 316 to 1000 | 398 | 1 to 3.16 | 2.51 | 30 | B (a ratio of between 30 and 50) |
| CCC1(C)C(=O)Nc2nccc(-c3cc(Cl)cc(N4CCNC[C@H]4C)n3)c21 (stereo partly drawn) [Example 146] | 10 to 31.6 | 25.1 | 1 to 3.16 | 2.51 | 4 | F (a ratio of between 1 and 5) |
| CC[C@]1(C)C(=O)Nc2nccc(-c3cc(C(C)(F)F)cc(N4CCCNCC4)n3)c21 (single isomer, unassigned) [Example 205] | 31.6 to 100 | 79.4 | 3.16 to 10 | 3.98 | 13 | D (a ratio of between 10 and 20) |
| C[C@H]1CNCCN(c2cc(C(F)(F)F)cc(-c3ccnc4c3C(C)(C)C(=O)N4)n2)C1 [Example 181] | 100 to 316 | 158 | 10 to 31.6 | 12.6 | 12 | D (a ratio of between 10 and 20) |
| CC1(O)C(=O)Nc2nccc(-c3cc(N4CCNCC4)ccc3F)c21 (stereo not drawn) [Example 60] | > 1000 | 1580 | 100 to 316 | 126 | 4 | F (a ratio of between 1 and 5) |
| CC[C@H]1CN(c2cc(Cl)cc(-c3ccnc4c3C(C)(OC)C(=O)N4)n2)CCN1 (stereo partly drawn) [Example 130] | 100 to 316 | 158 | 3.16 to 10 | 7.94 | 8 | E (a ratio of between 5 and 10) |

— patent US20260035367A1 (Celgene Corporation, priority 2021, published 2026)
